Assay [1] is described as follows: Fluorescence ANTS/DPX vesicle leakage assay in POPC/POPG (3:1). The conditions noted are these: for Leakage, mean value: ANTS/DPX, POPC/POPG (3:1) 100 nm vesicles, P/L about 1:160 per peptide, mixtures 1:1, 10 mM HEPES pH 7.5, 155 mM NaCl, 30 °C, 600 s, % of Triton-X-100 leakage, fluorescence, mean of n = 3; for Leakage synergy in combination with MAG2-E19K / Leakage synergy in combination with MAG2-E19K-amide: POPC/POPG (3:1) vesicles, result in words. Here is the method: The synergy was also investigated by a fluorescence ANTS/DPX leakage assay[24],[27],[30]. As described in the Methods section, leakage from POPC/POPG (3:1) vesicles was measured for 10 minutes after the addition of vesicles to a peptide solution. Leakage is expressed as percentage of the full leakage, which was obtained after addition of detergent. A synergy factor was defined to describe the enhancement of leakage of the mixture compared to the sum of the extent of leakage for each component. […] In general a synergy factor above 2 indicated synergy. […] In the leakage assay, this pore formation can be studied under more controlled conditions. Here we use two lipid compositions for the vesicles, which are mimicking bacterial membranes.
(§1) Leakage of small unilamellar vesicles induced by the peptides was studied using a standard fluorescence assay.
(§2) The appropriate lipids for each experiment were dissolved in CHCl3, together with 0.02 mol-% Rhodamine-PE (Rh-PE). […] This stock suspension was subjected to 10 freeze-thaw cycles and then frozen. Appropriate aliquots of the stock lipid suspension were unfrozen each day and extruded (41 times) through polycarbonate membranes with 100 nm pore size, and stored at room temperature overnight. The fluorophore and quencher outside the vesicles were removed by size exclusion chromatography using spin-columns (Pierce centrifuge column, 2 ml, Life Technologies GmbH, Darmstadt, Germany) filled with Sephacryl 100-HR (2 min, 1500 × g). For elution, a 10 mM HEPES buffer (pH 7.5) was used, containing 155 mM NaCl to balance the osmolarity. After extrusion and removal of the external dye and quencher, the lipid concentration usually decreases. Therefore, before each set of measurements a rhodamine spectrum was recorded to determine the actual concentration of lipids, which was referenced to a spectrum taken of vesicles made by sonification without any subsequent treatment.
(§3) Fluorescence experiments were performed on a FluoroMax2 spectrofluorimeter (HORIBA Jobin Yvon, Unterhaching, Germany) equipped with a thermostated sample holder and magnetic stirrer, using an excitation wavelength of 355 nm, an emission wavelength of 508 nm, and slit widths of 5 nm. The peptide solutions were placed in elution buffer in a 1 cm standard cuvette at 30 °C. 100 s after the start of the measurement lipid vesicles were added, and the intensity of the fluorescence at 508 nm was recorded. The leakage was measured during 600 s after addition of vesicles, and the measurement was terminated after addition of Triton-X-100 (0.25% v/v), which dissolved the vesicles, and yielded 100% leakage. To determine the background signal of the vesicles themselves, several blanks were recorded per measurement set. From the leakage values of the peptides alone and of the mixture of two peptides a synergy factor SF was calculated:3 SF=L(A+B)/[L(A)+L(B)] […] Measurements were repeated three times and average values and standard deviations calculated for the leakage and the synergy factors. An average SF ≥ 2 was taken to indicate synergy.

Assay [2] can be described thus: Fluorescence ANTS/DPX vesicle leakage assay in POPE/POPG/TOCL (72:23:5). To be noted: POPE/POPG/TOCL (72:23:5) 100 nm vesicles, P/L ≈ 1:30, mixtures 1:1, 10 mM HEPES pH 7.5, 155 mM NaCl, 30 °C, 600 s, % of Triton-X-100 leakage, mean of n = 3.
Source text: It could be argued that POPC/POPG (3:1) is not the most appropriate model system to describe a bacterial membrane, which rarely contains PC lipids. We therefore also performed leakage in another lipid system, POPE/POPG/TOCL (72:23:5), which is a good model of E. coli membranes[45],[69],[70]. […] For all of the other mutants discussed below, leakage was also studied both in POPC/POPG as well as POPE/POPG/TOCL, but since the results (synergy or no synergy) were in all cases the same, the latter data will not be presented in the text. All leakage data in POPE/POPG/TOCL (72:23:5) for charge mutants are summarized in Supplementary Table S4.
as §1, §2
as §3, with “SF=L(A+B)/[L(A)+L(B)] Here, L(A) is the leakage found with peptide A alone, L(B) is the leakage found with peptide B alone, and L(A + B) is the leakage found with the mixture of peptides A and B. In all cases the P/L was the same for both peptides, alone and in the mixture, so that in the mixture the total P/L was twice that of the individual peptide measurements.” for “SF=L(A+B)/[L(A)+L(B)]”

Setting [3] is: Table S3 series (charge mutants).
Where [4] appears, read: Table S4 series (charge mutants).
Where [5] appears, read: Table S7 series (PGLa-to-MSI mutants).
Where [6] appears, read: Table S11 series (MSI-to-PGLa mutants).
Setting [7] is: Table S8 series (PGLa-to-MSI mutants).
Setting [8] is: Table S12 series (MSI-to-PGLa mutants).

No end group written: not given here.

Take “GIGKFLHSAKKFGKAFVGEIMNS-NH2 [MAG2-amide, MAG2 with amidated C-terminus]”: the “Leakage, mean value” in assay [1] (setting [3]) turned out to be 3.7%; in assay [2] (setting [4]), 0.8%.

Consider “GIGKFLHSAKKFGKAFVGEIMNS-OH [MAG2-WT, magainin 2, wild type antimicrobial peptide from Xenopus laevis skin, reference compound]”, for which the “Leakage, mean value” in assay [1] (setting [3]) is recorded as 3.1%; in assay [1] (setting [5]), 3.2%; in assay [1] (setting [6]), 3.2%; in assay [1] (Table S15 series (Gly mutants)), 3.2%; in assay [2] (setting [4]), 1.1%; in assay [2] (setting [7]), 1.2%. The “Leakage, mean value” was 1.0% in assay [2] (setting [8]) and 1.1% in assay [2] (Table S16 series (Gly mutants)).

Take “GIGKFLHSAKKFGKAFVGQIMNS-OH [MAG2-E19Q, MAG2 charge mutant E19Q]”: the “Leakage, mean value” in assay [1] (setting [3]) amounted to 5.9%; in assay [2] (setting [4]), 1.1%.

For “GMASEAGAIAGKIAKVALKAL-NH2 [PGLa-K5E, PGLa charge mutant K5E]”, the “Leakage, mean value” in assay [1] (setting [3]) is 3.5%; in assay [2] (setting [4]), 2.2%.

With “GMASKAAAIAGKIAKVALKAL-NH2 (also: 15N-labeled Ala10) [PtM-G7A, PGLa single mutant G7A]”, the “Leakage, mean value” turned out to be 2.1% in assay [1] (setting [5]) and 3.7% in assay [2] (setting [7]).

Take “GMASKAAAIAGKIGKVALKAL-NH2 (also: 15N-labeled Ala10) [PGLa-GS1, PGLa glycine-shift mutant with GxxG motif]”: the “Leakage, mean value” in assay [1] (Table S15 series (Gly mutants)) stood at 1.9%; in assay [2] (Table S16 series (Gly mutants)), 2.7%.

With “GMASKAGAIA IKIAKVALKAL-NH2 [PGLa-G11I, PGLa glycine mutant G11I]”, the “Leakage, mean value” in assay [1] (Table S15 series (Gly mutants)) worked out at 11.0%; in assay [2] (Table S16 series (Gly mutants)), 11.4%.

As for “GMASKAGAIAGEIAKVALKAL-NH2 [PGLa-K12E, PGLa charge mutant K12E]”, the figures for the “Leakage, mean value” in assay [1] (setting [3]) and in assay [2] (setting [4]) were 3.1% and 2.3%, respectively.

As to “GMASKAGAIAGKIAEVALKAL-NH2 [PGLa-K15E, PGLa charge mutant K15E]”, in assay [1], the “Leakage synergy in combination with MAG2-E19K” value is given as “did not show synergy”. Also, the “Leakage synergy in combination with MAG2-E19K-amide” value in assay [1] was “did not show synergy”. Also, the results for the “Leakage, mean value” in assay [1] (setting [3]) and in assay [2] (setting [4]) were 2.9% and 2.5%, respectively.

With “GMASKAGAIAGKIAKVALEAL-NH2 [PGLa-K19E, PGLa charge mutant K19E]”, in assay [1], the “Leakage synergy in combination with MAG2-E19K” value is given as “did not show synergy” and the “Leakage synergy in combination with MAG2-E19K-amide” value is listed as “did not show synergy”. Moreover, in assay [1] (setting [3]), the “Leakage, mean value” amounted to 3.0%. The “Leakage, mean value” in assay [2] (setting [4]) is recorded as 1.7%.

Regarding “GMASKAGAIAGKIAKVALKAL-NH2 [PGLa-WT, PGLa wild type antimicrobial peptide from Xenopus laevis skin, 15N-labeled at Ala10, reference compound]”, the “Leakage, mean value” in assay [1] (setting [3]) is reported as 2.3%; in assay [1] (setting [5]), 2.7%; in assay [1] (setting [6]) it was 2.3%; in assay [1] (Table S15 series (Gly mutants)) it was 2.2%; in assay [2] (setting [4]), 2.2%; in assay [2] (setting [7]) it was 2.2%. The “Leakage, mean value” in assay [2] (setting [8]) came out at 2.1%; in assay [2] (Table S16 series (Gly mutants)) it was 2.3%.

Regarding “GMASKAIAG A IKGAKVALKAL-NH2 [PGLa-GS2, PGLa glycine-shift mutant, GxxxG on opposite helix face]”, the “Leakage, mean value” is on record as 2.0% in assay [1] (Table S15 series (Gly mutants)) and 2.2% in assay [2] (Table S16 series (Gly mutants)).

“GMASKIAKIAGKIAKVALKAL-NH2 [PtM-a3, PGLa to MSI-103 mutant, three amino acids converted]”: the “Leakage, mean value” in assay [1] (setting [5]) is listed as 3.3%; in assay [2] (setting [7]) it was 9.1%.

With “KIAGKAAKIAGKIAKIAGKIA-NH2 [MtP-I6A, MSI-103 to PGLa single mutant I6A]”, the “Leakage, mean value” was 1.6% in assay [1] (setting [6]) and 4.8% in assay [2] (setting [8]).

Regarding “KIAGKAGAIAGKIAKIAGKIA-NH2 [MtP-a3, MSI-103 triple mutant I6A, A7G, K8A]”, the “Leakage, mean value” in assay [1] (setting [6]) and in assay [2] (setting [8]) was 0.9% each time.

For “KIAGKAGAIAGKIAKIALKIA-NH2 (also: 15N-labeled Ala10) [MtP-a4, MSI-103 mutant with MtP-A3 mutations plus G18L]”, the “Leakage, mean value” was determined as 2.5% in assay [1] (setting [6]) and 2.6% in assay [2] (setting [8]).

Turning to “KIAGKAGKIAGKIAKIAGKIA-NH2 (also: 15N-labeled Ala10) [MtP-I6A-A7G, MSI-103 double mutant I6A, A7G]”, the “Leakage, mean value” in assay [1] (setting [6]) came to 0.8%.

As to “KIAGKIGAIAGKIAKIAGKIA-NH2 (also: 15N-labeled Ala10) [MtP-K8A-A7G, MSI-103 double mutant K8A, A7G]”, in assay [1] (setting [6]), the “Leakage, mean value” was 1.3%.

In the case of “KIAGKIGKIAGKIAKIALKIA-NH2 (also: 15N-labeled Ala10) [MtP-A7G-G18L, MSI-103 double mutant A7G, G18L]”, in assay [1] (setting [6]), the “Leakage, mean value” came out at 4.9%.

As to “KIASKIGKIAGKIAKIAGKIA-NH2 (also: 15N-labeled Ala10) [MtP-G4S-A7G, MSI-103 double mutant G4S, A7G]”, the “Leakage, mean value” in assay [1] (setting [6]) stood at 1.4%.

The record behind these values is article PMC5640672, “Molecular mechanism of synergy between the antimicrobial peptides PGLa and magainin 2” (Scientific Reports, 2017).
